# Results taken from ChEMBL document CHEMBL5131447, “Discovery of orexin 2 receptor selective and dual orexin receptor agonists based on the tetralin structure: Switching of receptor selectivity by chirality on the tetralin ring” (Bioorg Med Chem Lett, 2022).
# Legend:
# [1] = molecular target: T1, Orexin/Hypocretin receptor type 1 (Homo sapiens) (UniProt O43613); experiment: Agonist activity at OX1R (unknown origin) assessed as maximum efficacy at 10 uM relative to control; type: functional
# T1 sequence (whole entry): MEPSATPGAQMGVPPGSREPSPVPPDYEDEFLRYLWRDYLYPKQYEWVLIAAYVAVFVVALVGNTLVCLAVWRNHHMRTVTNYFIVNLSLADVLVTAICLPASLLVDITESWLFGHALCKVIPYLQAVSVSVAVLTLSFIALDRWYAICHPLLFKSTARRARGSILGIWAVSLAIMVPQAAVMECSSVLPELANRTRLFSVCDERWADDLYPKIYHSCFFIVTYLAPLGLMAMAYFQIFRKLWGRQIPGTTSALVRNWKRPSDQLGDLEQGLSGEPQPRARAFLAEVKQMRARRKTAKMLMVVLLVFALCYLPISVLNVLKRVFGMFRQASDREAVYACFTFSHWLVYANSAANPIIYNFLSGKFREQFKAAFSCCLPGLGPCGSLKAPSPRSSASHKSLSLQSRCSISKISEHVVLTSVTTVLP
# Orexin receptor type 2 = molecular target: T2, Orexin receptor type 2 (Homo sapiens, UniProt O43614); experiment: Agonist activity at OX2R (unknown origin); type: functional
# T2 sequence (O43614 whole entry): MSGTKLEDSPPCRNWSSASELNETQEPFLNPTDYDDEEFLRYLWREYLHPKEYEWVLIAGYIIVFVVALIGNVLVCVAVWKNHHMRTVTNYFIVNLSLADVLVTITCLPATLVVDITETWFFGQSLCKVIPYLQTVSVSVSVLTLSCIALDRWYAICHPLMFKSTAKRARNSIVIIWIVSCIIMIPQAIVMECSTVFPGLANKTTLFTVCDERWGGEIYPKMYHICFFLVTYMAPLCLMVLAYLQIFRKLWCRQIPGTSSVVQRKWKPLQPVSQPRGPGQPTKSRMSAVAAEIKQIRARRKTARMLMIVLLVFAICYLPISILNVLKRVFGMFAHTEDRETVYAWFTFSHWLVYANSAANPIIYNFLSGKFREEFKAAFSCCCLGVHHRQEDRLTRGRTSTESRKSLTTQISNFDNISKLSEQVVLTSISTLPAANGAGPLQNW
# [2] = molecular target: T3, Orexin/Hypocretin receptor type 1 (Homo sapiens, UniProt O43613); experiment: Agonist activity at OX1R (unknown origin); type: functional
# T3 sequence (O43613 whole entry): T1 sequence (whole entry)
# [3] = molecular target: T4, Orexin receptor type 2 (Homo sapiens) (UniProt O43614); experiment: Agonist activity at OX2R (unknown origin) assessed as maximum efficacy at 10 uM relative to control; type: functional
# T4 sequence (whole entry): T2 sequence (O43614 whole entry)
# Homo sapiens = species: Homo sapiens; experiment: Selectivity index, ratio of EC50 for agonist activity at OX1R (unknown origin) to EC50 for agonist activity at OX2R (unknown origin)
Compound,Emax ([1]; filed as agonist),EC50 (Orexin receptor type 2),EC50 [2],Emax [3],Ratio EC50 (Homo sapiens),Emax [1]
COc1ccc(-c2cccc(C(=O)N(C)C)c2)cc1S(=O)(=O)Nc1ccc2c(c1)C(N(C)C(=O)C1CCCCC1)CCC2 (stereo not given),44.3%,0.837 µM,> 10 µM,–,–,–
COc1cccc(CC(=O)N(C)c2cccc3c2CC(NS(=O)(=O)c2cc(-c4cccc(C(=O)N(C)C)c4)ccc2OC)CC3)c1 (stereo not given),–,> 10 µM,5.49 µM,39.9%,–,–
COc1ccccc1CC(=O)N(C)C1CCCc2ccc(NS(=O)(=O)c3cc(-c4cccc(C(=O)N(C)C)c4)ccc3OC)cc21 (stereo not given),–,0.00359 µM,0.0922 µM,–,25.7,–
COc1ccc(CN(C)C2CCc3ccc(NS(=O)(=O)c4cc(-c5cccc(C(=O)N(C)C)c5)ccc4OC)cc32)cc1 (stereo not given),–,0.00327 µM,0.287 µM,–,87.8,–
COc1ccc(-c2cccc(C(=O)N(C)C)c2)cc1S(=O)(=O)Nc1ccc2c(c1)C(N(C)C(=O)Cc1ccccc1)CCC2 (stereo not given),–,0.0107 µM,0.112 µM,–,10.5,–
COc1ccc(-c2cccc(C(=O)N(C)C)c2)cc1S(=O)(=O)Nc1ccc2c(c1)C(N(C)C(=O)Cc1cccc(F)c1)CCC2 (stereo not given),–,0.0065 µM,0.0863 µM,–,13.3,–
COc1cccc(CC(=O)N(C)[C@H]2CCCc3ccc(NS(=O)(=O)c4cc(-c5cccc(C(=O)N(C)C)c5)ccc4OC)cc32)c1,–,0.00269 µM,1.24 µM,–,461,–
CCCN(C(=O)Cc1cccc(OC)c1)C1CCCc2ccc(NS(=O)(=O)c3cc(-c4cccc(C(=O)N(C)C)c4)ccc3OC)cc21 (stereo not given),–,0.0437 µM,3.92 µM,–,89.6,–
H-MTLIGAAHNGSAQLLRQLRGQLGPPGSR-NH2,–,–,–,–,41.7,–
COc1cccc(CC(=O)OC2CCCc3ccc(NS(=O)(=O)c4cc(-c5cccc(C(=O)N(C)C)c5)ccc4OC)cc32)c1 (stereo not given),–,0.413 µM,5.78 µM,–,14,–
COC(=O)N1CCC[C@H](NS(C)(=O)=O)[C@@H]1CO[C@H]1CC[C@@H](c2ccccc2)CC1 [DANAVOREXTON],–,–,> 30 µM,–,–,–
CCN(C(=O)Cc1cccc(OC)c1)C1CCCc2ccc(NS(=O)(=O)c3cc(-c4cccc(C(=O)N(C)C)c4)ccc3OC)cc21 (stereo not given),–,0.0193 µM,0.356 µM,–,18.4,–
COc1ccc(CC(=O)N(C)C2CCCc3ccc(NS(=O)(=O)c4cc(-c5cccc(C(=O)N(C)C)c5)ccc4OC)cc32)cc1 (stereo not given),–,–,0.12 µM,–,–,–
COc1ccc(-c2cccc(C(=O)N(C)C)c2)cc1S(=O)(=O)Nc1ccc2c(c1)C(N(C)C(=O)Cc1cccnc1)CCC2 (stereo not given),–,0.151 µM,1.18 µM,–,7.83,–
COc1cccc(CC(=O)N(CC2CC2)C2CCCc3ccc(NS(=O)(=O)c4cc(-c5cccc(C(=O)N(C)C)c5)ccc4OC)cc32)c1 (stereo not given),–,0.0781 µM,> 10 µM,–,–,18.7%
COc1ccc(-c2cccc(C(=O)N(C)C)c2)cc1S(=O)(=O)Nc1ccc2c(c1)C(N(C)C(=O)c1ccccc1)CCC2 (stereo not given),–,0.618 µM,> 10 µM,–,–,8.61%
COc1ccc(-c2cccc(C(=O)N(C)C)c2)cc1S(=O)(=O)Nc1ccc2c(c1)C(N(C)C(=O)CCc1ccccc1)CCC2 (stereo not given),–,0.126 µM,0.372 µM,–,2.95,–
COc1ccc(-c2cccc(C(=O)N(C)C)c2)cc1S(=O)(=O)Nc1ccc2c(c1)C(N(C)C(=O)Cc1cccc(N(C)C)c1)CCC2 (stereo not given),–,0.00559 µM,0.089 µM,–,15.9,–
COc1cccc(CC(=O)N(C)C2CCCc3ccc(NS(=O)(=O)c4cc(-c5cccc(C(=O)N(C)C)c5)ccc4OC)cc32)c1 (racemic),–,0.00151 µM,0.0307 µM,–,20.3,–
COc1cccc(CC(=O)NC2CCCc3ccc(NS(=O)(=O)c4cc(-c5cccc(C(=O)N(C)C)c5)ccc4OC)cc32)c1 (stereo not given),–,0.0266 µM,0.229 µM,–,8.61,–
COc1cccc(CC(=O)N(C)c2cccc3ccc(NS(=O)(=O)c4cc(-c5cccc(C(=O)N(C)C)c5)ccc4OC)cc23)c1,–,0.224 µM,0.402 µM,–,1.79,–
COc1ccc(-c2cccc(C(=O)N(C)C)c2)cc1S(=O)(=O)Nc1ccc2c(c1)C(N(C)C(=O)Cc1cccc(O)c1)CCC2 (stereo not given),–,0.057 µM,0.713 µM,–,12.5,–
CCOc1cccc(CC(=O)N(C)C2CCCc3ccc(NS(=O)(=O)c4cc(-c5cccc(C(=O)N(C)C)c5)ccc4OC)cc32)c1 (stereo not given),–,0.00214 µM,0.0553 µM,–,25.8,–
CCCCC(=O)N(C)C1CCCc2ccc(NS(=O)(=O)c3cc(-c4cccc(C(=O)N(C)C)c4)ccc3OC)cc21 (stereo not given),–,1.92 µM,4.18 µM,–,2.18,–
COc1cccc(CC(=O)N(C)[C@@H]2CCCc3ccc(NS(=O)(=O)c4cc(-c5cccc(C(=O)N(C)C)c5)ccc4OC)cc32)c1,–,0.000579 µM,0.0135 µM,–,23.3,–
COc1ccc(-c2cccc(C(=O)N(C)C)c2)cc1S(=O)(=O)Nc1ccc2c(c1)C(N(C)C(=O)Nc1ccccc1)CCC2 (stereo not given),–,–,3.25 µM,–,–,–
